Where two headings read alike, the source gives them in different places.
Columns and labels:
[1] = human
[2] = human, intravenous, cited from earlier work
[3] = human, cited from earlier work; for Rb_Human: blood-to-plasma concentration ratio, median if multiple values reported, Reference of Table S1
[4] = human, cited from earlier work
plasma protein = conditions: cited from earlier work; for fp_Human (free fraction in plasma): human, collected value, median if multiple values were reported, ref: Table S1
[5] = median if multiple values reported, Reference of Table S1
[6] = intravenous, median if multiple values reported, Reference of Table S1
[7] = free fraction in human plasma, median if multiple values reported, Reference of Table S1
[8] = median if multiple values were reported, ref numbers in Table S1
[9] = intravenous, median if multiple values were reported, ref numbers in Table S1

## Cc1ccsc1C(=CCCN1CCC[C@@H](C(=O)O)C1)c1sccc1C [Tiagabine]
[1]
  in vivo MRT_(hr)_Human: 11.458 h
[2]; [5]
  in vivo CL_(L/hr/kg)_Human: 0.096 L/h/kg
[3]
  Rb_Human: 0.65
[4]; [6]
  in vivo Vd_(L/kg)_Human: 1.100 L/kg
Plasma protein; [7]
  fp_Human: 0.040

## CC(C)NCC(O)COc1ccc(CCOCC2CC2)cc1 (centres unmarked) [Betaxolol]
[1]
  in vivo MRT_(hr)_Human: 23.529 h
[2]; [8]
  in vivo CL_(L/hr/kg)_Human: 0.204 L/h/kg
[3]; [8]
  Rb_Human (blood-to-plasma concentration ratio): 0.79
[4]; [9]
  in vivo Vd_(L/kg)_Human: 4.800 L/kg
Plasma protein
  fp_Human (free fraction in plasma): 0.495

## CO[C@@]1(NC(=O)C2SC(=C(C(N)=O)C(=O)O)S2)C(=O)N2C(C(=O)O)=C(CSc3nnnn3C)CS[C@@H]21 (some centres unmarked) [Cefotetan]
[1]
  in vivo MRT_(hr)_Human: 5.159 h
[2]; [8]
  in vivo CL_(L/hr/kg)_Human: 0.025 L/h/kg
[3]; [8]
  Rb_Human (blood-to-plasma concentration ratio): 0.65
[4]; [9]
  in vivo Vd_(L/kg)_Human: 0.130 L/kg
Plasma protein
  fp_Human (free fraction in plasma): 0.150

## CCCNC(C)C(=O)Nc1ccccc1C (centres unmarked) [Prilocaine]
[1]
  in vivo MRT_(hr)_Human: 2.126 h
[2]; [5]
  in vivo CL_(L/hr/kg)_Human: 1.740 L/h/kg
[3]
  Rb_Human: 1.25
[4]; [6]
  in vivo Vd_(L/kg)_Human: 3.700 L/kg
Plasma protein; [7]
  fp_Human: 0.665

## CC(C)=CCN1CCC2(C)c3cc(O)ccc3CC1C2C (centres unmarked) [Pentazocine]
[1]
  in vivo MRT_(hr)_Human: 2.464 h
[2]; [8]
  in vivo CL_(L/hr/kg)_Human: 1.380 L/h/kg
[3]; [8]
  Rb_Human (blood-to-plasma concentration ratio): 1.07
[4]; in vivo, iv
  in vivo Vd_(L/kg)_Human: 3.400 L/kg
Plasma protein
  fp_Human (free fraction in plasma): 0.380

## CN(C)CCC(c1ccc(Cl)cc1)c1ccccn1 (centres unmarked) [Chlorpheniramine]
[1]
  in vivo MRT_(hr)_Human: 22.000 h
[2]; [8]
  in vivo CL_(L/hr/kg)_Human: 0.150 L/h/kg
[3]; [8]
  Rb_Human (blood-to-plasma concentration ratio): 1.34
[4]; [9]
  in vivo Vd_(L/kg)_Human: 3.300 L/kg
Plasma protein
  fp_Human (free fraction in plasma): 0.280

## Clc1cccc(Cl)c1N=C1NCCN1 [Clonidine]
[1]
  in vivo MRT_(hr)_Human: 13.750 h
[2]; [8]
  in vivo CL_(L/hr/kg)_Human: 0.213 L/h/kg
[3]; [8]
  Rb_Human (blood-to-plasma concentration ratio): 1.04
[4]; [9]
  in vivo Vd_(L/kg)_Human: 3.300 L/kg
Plasma protein
  fp_Human (free fraction in plasma): 0.560

## Cc1ncc2n1-c1ccc(Cl)cc1C(c1ccccc1F)=NC2 [Midazolam]
[1]
  in vivo MRT_(hr)_Human: 3.459 h
[2]; [8]
  in vivo CL_(L/hr/kg)_Human: 0.318 L/h/kg
[3]; [8]
  Rb_Human (blood-to-plasma concentration ratio): 0.68
[4]; in vivo, iv
  in vivo Vd_(L/kg)_Human: 1.100 L/kg
Plasma protein
  fp_Human: 0.030
  fp_Human (free fraction in plasma): 0.030

## OCCN1CCN(CCCN2c3ccccc3Sc3ccc(C(F)(F)F)cc32)CC1 [Fluphenazine]
[1]
  in vivo MRT_(hr)_Human: 4.983 h
[2]; [8]
  in vivo CL_(L/hr/kg)_Human: 0.591 L/h/kg
[3]; [8]
  Rb_Human (blood-to-plasma concentration ratio): 0.69
[4]; [9]
  in vivo Vd_(L/kg)_Human: 2.900 L/kg
Plasma protein
  fp_Human (free fraction in plasma): 0.040

## CN(c1nc2ccccc2s1)C1CCN(CC(O)COc2ccc(F)cc2)CC1 (centres unmarked) [Sabeluzole]
[1]
  in vivo MRT_(hr)_Human: 22.634 h
[2]; [5]
  in vivo CL_(L/hr/kg)_Human: 0.243 L/h/kg
[3]
  Rb_Human: 0.82
[4]; [6]
  in vivo Vd_(L/kg)_Human: 5.500 L/kg
Plasma protein; [7]
  fp_Human: 0.012

## Cc1cccc(C)c1OCC(C)N (centres unmarked) [Mexiletine]
[1]
  in vivo MRT_(hr)_Human: 11.847 h
[2]; [8]
  in vivo CL_(L/hr/kg)_Human: 0.498 L/h/kg
[3]; [8]
  Rb_Human (blood-to-plasma concentration ratio): 1.12
[4]; [9]
  in vivo Vd_(L/kg)_Human: 5.900 L/kg
Plasma protein
  fp_Human (free fraction in plasma): 0.350

## C[C@@H]1C[C@H]2[C@@H]3C[C@H](F)C4=CC(=O)C=C[C@]4(C)[C@@]3(F)[C@@H](O)C[C@]2(C)[C@@]1(O)C(=O)SCF [Fluticasone]
[1]
  in vivo MRT_(hr)_Human: 3.529 h
[2]; [8]
  in vivo CL_(L/hr/kg)_Human: 1.020 L/h/kg
[3]; [8]
  Rb_Human (blood-to-plasma concentration ratio): 0.60
[4]; [9]
  in vivo Vd_(L/kg)_Human: 3.600 L/kg
Plasma protein
  fp_Human (free fraction in plasma): 0.100

## Cc1cn([C@H]2C[C@H](N=[N+]=[N-])[C@@H](CO)O2)c(=O)[nH]c1=O [Zidovudine]
[1]
  in vivo MRT_(hr)_Human: 1.067 h
[2]; [5]
  in vivo CL_(L/hr/kg)_Human: 1.500 L/h/kg
[3]
  Rb_Human: 1.11
[4]; [6]
  in vivo Vd_(L/kg)_Human: 1.600 L/kg
Plasma protein; [7]
  fp_Human: 0.700

## CC(C)NCC(O)COc1cccc2[nH]ccc12 (centres unmarked) [Pindolol]
[1]
  in vivo MRT_(hr)_Human: 2.597 h
[3]
  Rb_Human: 0.69
[4]; [6]
  in vivo Vd_(L/kg)_Human: 1.200 L/kg
Plasma protein; [7]
  fp_Human: 0.580

## COc1cc(Cc2cnc(N)nc2N)cc(OC)c1OC [Trimethoprim]
[1]
  in vivo MRT_(hr)_Human: 11.905 h
[3]
  Rb_Human: 1.03
[4]; [6]
  in vivo Vd_(L/kg)_Human: 1.500 L/kg
Plasma protein; [7]
  fp_Human: 0.500

## CCOc1ccc(NC(C)=O)cc1 [Phenacetin]
[1]
  in vivo MRT_(hr)_Human: 1.111 h
[3]
  Rb_Human: 1.01
[4]; [6]
  in vivo Vd_(L/kg)_Human: 1.400 L/kg
Plasma protein; [7]
  fp_Human: 0.470

## COc1c(C)c2c(c(O)c1C/C=C(\C)CCC(=O)O)C(=O)OC2 [Mycophenolic acid]
[2]; [8]
  in vivo CL_(L/hr/kg)_Human: 0.199 L/h/kg
[3]; [8]
  Rb_Human (blood-to-plasma concentration ratio): 0.69
[4]; [9]
  in vivo Vd_(L/kg)_Human: 16.600 L/kg
Plasma protein
  fp_Human (free fraction in plasma): 0.009

## Cc1c(C)c2c(c(C)c1O)CCC(C)(COc1ccc(CC3SC(=O)NC3=O)cc1)O2 (centres unmarked) [Troglitazone]
[2]; [5]
  in vivo CL_(L/hr/kg)_Human: 0.210 L/h/kg
[3]
  Rb_Human: 0.55
[4]; [6]
  in vivo Vd_(L/kg)_Human: 0.710 L/kg
Plasma protein; [7]
  fp_Human: 0.00347

## Nc1nc(NC2CC2)c2ncn([C@H]3C=C[C@@H](CO)C3)c2n1 [Abacavir]
[2]; [8]
  in vivo CL_(L/hr/kg)_Human: 0.780 L/h/kg
[3]; [8]
  Rb_Human (blood-to-plasma concentration ratio): 1.03
[4]; [9]
  in vivo Vd_(L/kg)_Human: 0.840 L/kg
Plasma protein
  fp_Human (free fraction in plasma): 0.500

## C[C@@H]1CN([C@H]2CC[C@](C#N)(c3ccc(F)cc3)CC2)CC[C@]1(C(=O)O)c1ccccc1 [Levocabastine]
[2]; [8]
  in vivo CL_(L/hr/kg)_Human: 0.026 L/h/kg
[3]; [8]
  Rb_Human (blood-to-plasma concentration ratio): 1.20
[4]; [9]
  in vivo Vd_(L/kg)_Human: 1.170 L/kg
Plasma protein
  fp_Human (free fraction in plasma): 0.452

## O=C1Cc2cc(CCN3CCN(c4nsc5ccccc45)CC3)c(Cl)cc2N1 [Ziprasidone]
[2]; [5]
  in vivo CL_(L/hr/kg)_Human: 0.504 L/h/kg
[3]
  Rb_Human: 0.81
[4]; [6]
  in vivo Vd_(L/kg)_Human: 1.000 L/kg
Plasma protein; [7]
  fp_Human: 0.0012

## CNC(=C[N+](=O)[O-])NCCSCc1ccc(CN(C)C)o1 [Ranitidine]
[1]
  in vivo MRT_(hr)_Human: 2.083 h
[3]
  Rb_Human: 1.00
[4]; [6]
  in vivo Vd_(L/kg)_Human: 1.200 L/kg
Plasma protein; [7]
  fp_Human: 0.900

## Oc1ccc2c(c1)[C@@]13CCCC[C@@]1(O)[C@@H](C2)N(CC1CCC1)CC3 [butorphanol, reference compound]
[2]; [8]
  in vivo CL_(L/hr/kg)_Human: 2.460 L/h/kg
[3]; plasma
  Rb_Human (blood-to-plasma concentration ratio): 1.90
[4]; in vivo, iv
  in vivo Vd_(L/kg)_Human: 12.000 L/kg
Plasma protein
  fp_Human (free fraction in plasma): 0.170

## OC(CNCC(O)C1CCc2cc(F)ccc2O1)C1CCc2cc(F)ccc2O1 (centres unmarked) [Nebivolol]
[2]; [8]
  in vivo CL_(L/hr/kg)_Human: 0.840 L/h/kg
[3]; [8]
  Rb_Human (blood-to-plasma concentration ratio): 1.20
[4]; [9]
  in vivo Vd_(L/kg)_Human: 11.000 L/kg
Plasma protein
  fp_Human (free fraction in plasma): 0.020

## CC(C)NCC(O)c1ccc(NS(C)(=O)=O)cc1 (centres unmarked) [Sotalol]
[1]
  in vivo MRT_(hr)_Human: 10.833 h
[3]
  Rb_Human: 1.07
[4]; [6]
  in vivo Vd_(L/kg)_Human: 1.300 L/kg
Plasma protein; [7]
  fp_Human: 0.810

## Cc1ccc(C)c(OCCCC(C)(C)C(=O)O)c1 [Gemfibrozil]
[2]; [8]
  in vivo CL_(L/hr/kg)_Human: 0.102 L/h/kg
[3]; [8]
  Rb_Human (blood-to-plasma concentration ratio): 0.65
[4]; [9]
  in vivo Vd_(L/kg)_Human: 4.350 L/kg
Plasma protein
  fp_Human (free fraction in plasma): 0.005

## COCC(=O)O[C@]1(CCN(C)CCCc2nc3ccccc3[nH]2)CCc2cc(F)ccc2[C@@H]1C(C)C [Mibefradil]
[2]; [8]
  in vivo CL_(L/hr/kg)_Human: 0.240 L/h/kg
[3]; [8]
  Rb_Human (blood-to-plasma concentration ratio): 0.64
[4]; [9]
  in vivo Vd_(L/kg)_Human: 3.100 L/kg
Plasma protein
  fp_Human (free fraction in plasma): 0.006

## CCOc1ccccc1OCCN[C@H](C)Cc1ccc(OC)c(S(N)(=O)=O)c1 [Tamsulosin]
[2]; [5]
  in vivo CL_(L/hr/kg)_Human: 0.037 L/h/kg
[3]
  Rb_Human: 0.55
[4]; [6]
  in vivo Vd_(L/kg)_Human: 0.210 L/kg
Plasma protein; [7]
  fp_Human: 0.010

## C#CCN(C)[C@H](C)Cc1ccccc1 [Selegiline]
[2]; [5]
  in vivo CL_(L/hr/kg)_Human: 1.200 L/h/kg
[3]
  Rb_Human: 1.73
[4]; in vivo, iv
  in vivo Vd_(L/kg)_Human: 1.900 L/kg
Plasma protein
  fp_Human: 0.095

## O=[N+]([O-])O[C@H]1CO[C@H]2[C@@H]1OC[C@H]2O[N+](=O)[O-] [Isosorbide Dinitrate]
[2]; [8]
  in vivo CL_(L/hr/kg)_Human: 1.860 L/h/kg
[3]; [8]
  Rb_Human (blood-to-plasma concentration ratio): 1.25
[4]; [9]
  in vivo Vd_(L/kg)_Human: 0.975 L/kg
Plasma protein
  fp_Human (free fraction in plasma): 0.640

From PMC8342319, “Predicting blood-to-plasma concentration ratios of drugs from chemical structures and volumes of distribution in humans” (Molecular Diversity, 2021)
